In the assay the test system is CTLL-2 (ATCC TIB-214) cytotoxic T lymphocytes. In words: In vitro screening platform for immunomodulation, CTLL-2 T-lymphocyte density. It counts as cell-based. As for the experimental part:
An in vitro screening platform for immunomodulation was used to evaluate mebenzadole for efficacy. CTLL-2 (ATCC® TIB-214™) are cytotoxic T lymphocytes that were purchased and cultured according to ATCC protocol. […] The maximum volume added to the 1 mL of each of the 12 wells was 10 μL for the highest test concentration of mebenzadole and the control.

Each structure is given as a SMILES string.

For the compound `COC(=O)Nc1nc2ccc(C(=O)c3ccccc3)cc2[nH]1` [mebendazole, methyl 5-benzoylbenzimidazole-2-carbamate], the “effect on T-lymphocytes (FIG. 1)” value (CTLL-2 cell culture, 1 nM to 1 μM) is “dose dependently kill T-lymphocytes”. Further, the “test concentration at which significant reduction of T-lymphocytes starts” value (CTLL-2 cell culture, mebendazole in DMSO, 1 nM, 5 nM, 500 nM and 1 μM tested vs DMSO control) was found to be 1 nM. Besides, where the note is “in DMSO, equivalent given for 1 nM”, the “concentration at which significant reduction of CD+8 T cells starts, as mass concentration” value is reported as 0.295 μg per mL.

The values above are taken from patent US20250241898A1, “Topical Benzimidazole Formulations and Methods for Use in Treating Inflammatory Dermatoses” (JJR&D, LLC, priority 2022, published 2025).
